Assay results: patent US20100298348A1, “Method of Decreasing Ubiquitylated Protein Levels” (priority 2009, published 2010)

What was measured:
SAMP8 mouse = details: cited from earlier work
Neuro2a cells = assay: Aβ production by Neuro2a cells, ELISA of culture medium; assay type: cell-based, murine; details: 24 hours treatment, vs control
Procedure: Neuro2a is a murine neuroblastoma cell line that is known to produce amyloid peptides Aβ1-40 and Aβ1-42 in amounts measurable by ELISA assays. These forms of Aβ have been correlated with the pathology in AD brain and Aβ1-42 in particular is postulated to have the ability to block a7 nicotinic receptors and to produce direct neurotoxic effects. Neuro2a cells were treated for 24 hours with ST101 added to the tissue culture medium. Tissue culture medium was collected and analyzed by ELISA for the presence of Aβ.

Aβ42 = assay: Sandwich ELISA of Aβ42 in cynomolgus monkey hippocampal lysates, 9-month study; assay type: in vivo; details: male cynomolgus monkeys, 9 months oral
Procedure: Male cynomolgus monkeys were treated for 9 months with 0, 10, 30 or 100 mg/kg/day ST101 with once daily oral drug administration. Hippocampal brain samples were analyzed in Western blots and ELISAs for APP fragments and Aβ. […] Reductions in a ˜55-kDa fragment were also seen with treatment in these groups. Black outlines depict image level enhancement in Adobe Photoshop CS4, to better visualize weak signals. […] However, long exposures reveal the presence of the 17-kDa APP fragment only in treated monkeys (antibody CT20, Calbiochem). This fragment was not detected in either the 30 or 10 mg/kg/day ST101 groups. Error bars indicate SEM (standard error of the mean) and * indicates statistical significance versus control (p<0.05). (S: ST101-treated animals, versus C: control animals).

ubiquitylated proteins = assay: Anti-ubiquitin Western blot of 3xTg-AD mouse brain; assay type: in vivo
Procedure: Brain extracts from 12-month-old 3xTg-AD mice that had been treated with ST101 (S) at 5/mg/kg/day in drinking water over 2 months were analyzed in Western blots using an anti-ubiquitin antibody (Dako no. Z0448). […] The control (C) samples show a typical high molecular weight “smear” representing a mixture of ubiquitylated proteins.

Aβ1-40 = assay: Aβ in cynomolgus monkey brain after six-month chronic toxicity study; assay type: in vivo; details: juvenile cynomolgus monkeys, 10 mg/kg/day by naso-gastric tube, 6 months
Procedure: Brain samples from cynomolgus monkeys were obtained at the conclusion of a six-month chronic toxicity study. The cynomolgus monkeys used in this study were juveniles of less than 4 years of age. ST101 was administered daily for 6 months by naso-gastric tube at 10 mg/kg/day (n=8 per group). Data was generated from 8 treated and 8 control animals. Levels of Aβ1-40 are shown in FIG. 9, which is a bar graph that depicts the effect of ST 101 on Aβ in brain tissue from cynomolgus monkeys. FIG. 9 depicts the amount of levels of Aβ1-40 in monkeys treated with ST 101, relative to control monkeys.

O=C1N=C2C=CC=CN2C12Cc1ccccc1C2 [ST101, spiro(imidazo[1,2-a]pyridin-2(3H)-one-3,2′-indan)]
accumulation of Aβ-like deposits in brain tissue (SAMP8 mouse): decreased | learning and memory functions (SAMP8 mouse): improvement | Aβ1-40 concentration in cell culture medium (Neuro2a cells): without major effects | Aβ1-42 concentration in cell culture medium (Neuro2a cells): significantly reduced | Aβ42 in hippocampal lysates (Aβ42; 10 mg/kg/day): significant increases | Aβ42 in hippocampal lysates (Aβ42; 30 mg/kg/day): significant decreases | Aβ42 in hippocampal lysates (Aβ42; 100 mg/kg/day): significant decreases | ubiquitylated proteins (ubiquitylated proteins; 3xTg-AD mice 12 months old, 5 mg/kg/day in drinking water, 2 months): profound reduction | monomeric ubiquitin concentrations (ubiquitylated proteins; 3xTg-AD mice 12 months old, 5 mg/kg/day, 2 months, data not shown): largely unaffected | ubiquitylated proteins (ubiquitylated proteins; 3xTg-AD mice 14.5 months old, 5 mg/kg/day, ~2.5 months): significant reduction | Aβ1-40 levels in brain (Aβ1-40): reduction of Aβ1-40 in animals treated with ST101 that did not reach statistical significance
